Results: article PMC3581310 (Bioorganic & medicinal chemistry, 2012)

How the values were obtained:
[1] = system: human endometrial adenocarcinoma cells (Ishikawa); assay: Estrogen bioassay: induction of AlkP in Ishikawa cells; type: cell-based
ER [2] = settings: triphenyl acrylonitriles; cited from earlier work
ER [3] = settings: cited from earlier work

For `C[C@]12CC[C@@H]3c4ccc(O)cc4CC[C@H]3[C@@H]1CC[C@@H]2O` [Compound E2, estradiol], which EC50 ([1]; Homo sapiens, Ishikawa, read-out: EC50 of E2) is on record?
Its EC50 is roughly 0.2 nM.

With `N#CC(=C(c1ccc(O)cc1)c1ccc(O)cc1)c1ccc(O)cc1` [α,α′,β-tris(4-hydroxyphenyl) compound] as the molecule, how does the efficacy (ER [2]) read?
The efficacy was “full agonist”.

With `COc1ccc([C@H]2C[C@]3(C)[C@@H](O)CC[C@H]3[C@@H]3CCc4cc(O)ccc4[C@H]32)cc1` [Compound 5, 11β-(4-Methoxyphenyl)estra-1,3,5(10)-trien-3,17β-diol] as the molecule, how does the Max stim ([1]; maximal stimulation of AlkP in Ishikawa cells, printed in the RSA column) read?
Its Max stim is “Max stim = 35–45%”.

With `COc1ccc(C(=C(C#N)c2ccc(O)cc2)c2ccc(O)cc2)cc1` as the molecule, how does the efficacy (ER [2]) read?
Its efficacy is “‘partial’ agonist responses”.

With `CC/C(=C(\c1ccccc1)c1ccc(OCCN(C)C)cc1)c1ccccc1` [tamoxifen] as the molecule, how does the “affinity (RBA)” value (ER [3]) read?
Its value is ~ 1%.
